The text below walks through data of US6867009B2 (priority 1999, dated 2005).

As usually defined, the Kd is the equilibrium constant for the complex coming apart. Usually Ki stands for the equilibrium dissociation constant of an inhibitor or competing ligand from its target. As a reminder, the IC50 is the concentration needed to halve the response being measured.

SMILES strings stand for the structures. Several values for one entry are separate records, joined by “and”; a condition that tells them apart may be missing. Equal entries are not always repeated. Where two headings read alike, the source gives them in different places.

Test [1] addresses T1, rat VR1 (Rattus norvegicus, UniProt O35433).
T1 construct: expressed in transfected cells
Put plainly: biochemical. The test is classed as binding.

In test [2] the target is T1, rat VR1. As to the kind of experiment: cell-based.
Test [3] relates to rat dorsal root ganglion neurons. The note with it: cited from earlier work.
Test [4] deals with T2, native rat vanilloid receptors (Rattus norvegicus, UniProt O35433).
T2 construct: rat DRG membranes expressing native vanilloid receptors; from tissue; host or cells: dorsal root ganglia of female Sprague-Dawley rats, partially purified membrane fraction
As to the kind of experiment: biochemical. Format: binding.

Test [5] has as its target T3, VR1 (Rattus norvegicus, UniProt O35433).
T3 construct: host or cells: Xenopus oocytes (A8); VR1-transfected HEK293 cells (A9)
The note with it: cited from earlier work.

Test [6] has as its target T4, vanilloid receptor (VR) (Rattus norvegicus, UniProt O35433).
T4 construct: With regard to DRG neurons expressing native VRs this is clearly not the case; host or cells: intact rat dorsal root ganglion neurons
The note with it: cited from earlier work.

For test [7], the target named is T1, rat VR1. As to the kind of experiment: biochemical. Format: binding. This is another data set of the same source.
Test [8] addresses T1, rat VR1. As to the kind of experiment: cell-based. The source holds these as a separate data set.
The target in test [9] is T5, rat vanilloid-receptor-like protein 1 (VRL-1) (Rattus norvegicus, UniProt Q9WUD2).
T5 sequence (Q9WUD2 1-761): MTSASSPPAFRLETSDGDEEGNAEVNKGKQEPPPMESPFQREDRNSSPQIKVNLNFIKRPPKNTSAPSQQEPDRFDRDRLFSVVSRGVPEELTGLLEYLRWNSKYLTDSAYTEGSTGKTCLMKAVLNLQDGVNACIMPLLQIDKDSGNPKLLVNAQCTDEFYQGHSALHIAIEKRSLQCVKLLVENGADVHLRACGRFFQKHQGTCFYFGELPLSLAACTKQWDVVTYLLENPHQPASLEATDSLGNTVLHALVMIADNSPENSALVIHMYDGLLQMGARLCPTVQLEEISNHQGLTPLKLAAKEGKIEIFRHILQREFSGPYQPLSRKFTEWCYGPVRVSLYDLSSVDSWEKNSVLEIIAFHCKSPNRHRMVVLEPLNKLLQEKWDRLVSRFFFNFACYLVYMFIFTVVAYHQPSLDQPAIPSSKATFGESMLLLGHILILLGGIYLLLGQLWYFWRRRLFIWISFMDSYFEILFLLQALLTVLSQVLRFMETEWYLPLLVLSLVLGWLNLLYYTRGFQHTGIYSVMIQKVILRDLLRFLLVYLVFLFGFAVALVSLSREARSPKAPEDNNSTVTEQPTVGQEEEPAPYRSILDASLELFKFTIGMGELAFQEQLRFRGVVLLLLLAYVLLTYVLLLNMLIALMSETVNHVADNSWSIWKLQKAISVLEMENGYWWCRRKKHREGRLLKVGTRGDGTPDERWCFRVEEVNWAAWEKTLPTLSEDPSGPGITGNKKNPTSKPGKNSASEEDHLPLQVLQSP
The note with it: cited from earlier work.

Test [10] has as its system HEK 293T cells. Format: cell-based, human.
The target in test [11] is T6, human capsaicin receptor (Homo sapiens, UniProt Q8NER1, T469I).
T6 construct: expressed in transfected cells; host or cells: HEK 293T (transient, LIPOFECTAMINE; pBK-CMV phagemid clones PT35, PT44)
Format: cell-based.

Test [12] deals with T7, short form of human capsaicin receptor (Homo sapiens, UniProt Q8NER1, M315I/P91S/T469I).
T7 construct: expressed in transfected cells; host or cells: HEK 293T (transient, LIPOFECTAMINE; plasmid PT36)
The test is classed as cell-based.

[13] abbreviates: EC50 (potency) of calcium mobilization.
[14] abbreviates: read-out: EC50 for inducing calcium uptake / influx.
The mark [15] stands for this setting: Binding affinity (nM), radioligand itself.
The mark [16] stands for this setting: read-out: 45Ca2+-uptake (EC50, nM), agonists.
Setting [17] is: read-out: Ki for inhibition of [3H]RTX binding.

T1 sequence (O35433 whole entry): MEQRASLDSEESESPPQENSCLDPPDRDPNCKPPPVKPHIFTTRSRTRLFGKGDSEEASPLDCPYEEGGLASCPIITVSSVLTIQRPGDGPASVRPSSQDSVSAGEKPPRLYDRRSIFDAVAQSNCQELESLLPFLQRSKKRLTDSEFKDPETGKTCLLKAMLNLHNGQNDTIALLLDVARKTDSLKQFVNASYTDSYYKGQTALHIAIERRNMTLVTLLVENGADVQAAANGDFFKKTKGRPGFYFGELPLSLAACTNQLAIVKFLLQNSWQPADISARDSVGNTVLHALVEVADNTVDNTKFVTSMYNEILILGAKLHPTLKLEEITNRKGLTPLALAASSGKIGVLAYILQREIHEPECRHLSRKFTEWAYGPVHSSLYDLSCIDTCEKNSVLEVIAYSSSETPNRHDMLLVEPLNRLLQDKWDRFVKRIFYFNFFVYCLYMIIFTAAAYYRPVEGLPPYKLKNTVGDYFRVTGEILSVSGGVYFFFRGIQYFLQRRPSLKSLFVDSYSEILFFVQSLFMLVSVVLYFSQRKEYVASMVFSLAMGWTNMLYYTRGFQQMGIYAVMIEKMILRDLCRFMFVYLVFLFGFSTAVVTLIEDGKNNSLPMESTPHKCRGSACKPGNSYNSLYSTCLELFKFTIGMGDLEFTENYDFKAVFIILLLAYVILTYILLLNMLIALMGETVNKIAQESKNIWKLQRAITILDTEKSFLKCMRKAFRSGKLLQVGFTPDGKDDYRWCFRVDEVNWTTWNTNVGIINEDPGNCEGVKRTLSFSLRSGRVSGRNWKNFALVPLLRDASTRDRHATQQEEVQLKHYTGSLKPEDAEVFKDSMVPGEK
T2 sequence (O35433 whole entry): as above
T6 sequence (Q8NER1 whole entry T469I): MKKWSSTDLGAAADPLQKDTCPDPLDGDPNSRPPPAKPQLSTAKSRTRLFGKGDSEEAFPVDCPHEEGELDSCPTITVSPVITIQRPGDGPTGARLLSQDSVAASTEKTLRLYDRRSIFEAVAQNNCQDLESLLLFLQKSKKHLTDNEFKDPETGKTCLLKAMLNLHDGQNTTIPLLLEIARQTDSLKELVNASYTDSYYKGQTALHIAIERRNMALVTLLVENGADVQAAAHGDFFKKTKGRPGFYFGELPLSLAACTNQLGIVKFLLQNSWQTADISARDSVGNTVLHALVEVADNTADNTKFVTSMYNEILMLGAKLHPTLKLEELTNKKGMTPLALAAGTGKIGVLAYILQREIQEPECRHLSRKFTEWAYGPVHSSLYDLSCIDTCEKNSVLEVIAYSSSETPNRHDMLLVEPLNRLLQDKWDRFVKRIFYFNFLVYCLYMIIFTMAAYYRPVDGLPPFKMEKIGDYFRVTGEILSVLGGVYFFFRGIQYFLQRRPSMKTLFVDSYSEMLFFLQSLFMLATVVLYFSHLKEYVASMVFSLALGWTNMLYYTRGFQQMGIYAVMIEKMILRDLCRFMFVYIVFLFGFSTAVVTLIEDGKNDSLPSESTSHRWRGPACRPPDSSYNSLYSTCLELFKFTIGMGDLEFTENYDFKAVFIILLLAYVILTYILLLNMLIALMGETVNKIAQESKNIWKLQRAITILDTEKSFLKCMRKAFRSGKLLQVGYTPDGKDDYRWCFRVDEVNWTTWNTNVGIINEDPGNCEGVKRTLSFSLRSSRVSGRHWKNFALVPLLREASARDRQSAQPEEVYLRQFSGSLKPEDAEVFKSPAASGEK
T4 sequence (O35433 whole entry): as the sequence (O35433 whole entry) above
T7 sequence (Q8NER1 with tags, fused parts or gaps P91S/M315I/T469I): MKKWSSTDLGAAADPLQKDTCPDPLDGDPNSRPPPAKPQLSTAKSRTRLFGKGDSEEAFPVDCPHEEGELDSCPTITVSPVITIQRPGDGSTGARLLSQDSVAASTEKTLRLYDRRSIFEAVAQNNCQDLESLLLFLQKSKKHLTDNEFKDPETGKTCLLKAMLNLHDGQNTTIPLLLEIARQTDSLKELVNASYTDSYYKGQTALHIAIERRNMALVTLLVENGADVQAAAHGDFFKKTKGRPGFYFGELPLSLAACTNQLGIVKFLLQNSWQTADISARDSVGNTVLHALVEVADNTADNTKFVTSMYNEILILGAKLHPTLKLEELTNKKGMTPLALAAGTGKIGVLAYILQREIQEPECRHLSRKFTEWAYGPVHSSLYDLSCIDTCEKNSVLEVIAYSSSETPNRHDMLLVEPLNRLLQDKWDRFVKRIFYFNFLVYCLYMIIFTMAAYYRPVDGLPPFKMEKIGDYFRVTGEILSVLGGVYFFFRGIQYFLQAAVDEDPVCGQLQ
T3 sequence (O35433 whole entry): as the sequence (O35433 whole entry) above

On to `C=C(C)[C@]12C[C@@H](C)[C@@]34O[C@](Cc5ccccc5)(O[C@@H]1[C@@H]3C=C(COC(=O)Cc1ccc(O)c(OC)c1)C[C@]1(O)C(=O)C(C)=C[C@@H]41)O2` [resiniferatoxin, Resiniferatoxin], for which the Bmax in test [1] was 250+/−24 fmol/10^6 cells; in [4], 290+/−10 fmol/mg protein. Moreover, the “Hill coefficient, FIG. 1A” value in test [1] is 1.8. Further, the “Hill number (cooperativity index)” value in test [1] was 2.1 and 2.1+/−0.2; in test [4] it was 1.7 and 1.9+/−2. The “dissociation constant (1st order decay)” value in [1] was determined as 0.12 ± 0.02 min⁻¹. The “maximal receptor density, FIG. 1A” value in test [1] is 222 fmol per one million cells. Moreover, in test [1], the “non-specific binding as share of total binding” value is given as “approximately 20%”. The receptor density in test [1] is listed as 1.5×10^5 binding sites per cell. In addition, in test [1], the “specific binding attained, of its peak value” is on record as “approximately 90%”. The Kd in [1] (Half-maximal binding, FIG. 1A) is 0.056 nM; in test [1] ([3H]RTX binding affinity (half-maximal binding)), 0.084 nM; in test [4] (setting [15]) it was 0.07 nM; in test [4] (Half-maximal binding, FIG. 2) it was 0.06 nM; in test [4] ([3H]RTX Kd) it was 0.07 nM; in [6] (read-out: Kd of binding), 0.04 nM. The values for the Kd in [7] (setting [15]) and in test [7] ([3H]RTX binding affinity (Kd)) were 0.13 nM and 0.103 nM, respectively. Besides, in test [2], the “time-course of calcium mobilization response” value is on record as “slowly developing but persistent calcium currents”. In addition, the EC50 in test [2] (setting [13]) was 1.4 nM; in test [3] (setting [14]), 1 nM; in test [8], 4.1 nM. Further, the “Hill coefficient, FIG. 2” value in test [4] turned out to be 1.5. Moreover, the “maximal receptor density, FIG. 2” value in test [4] is listed as 302 fmol per one million cells. The “fold more potent than capsaicin” value in test [5] is on record as “approximately 20 fold”. The “fold more potent for binding than for inducing calcium uptake” value in test [6] is given as “approximately 25 fold”. In addition, in test [7], the Hill number is 1.8 and 1.9+/−0.1. In [7], the maximal receptor density is reported as 470+/−30 fmol/10^6 cells.

With `CCCCCCCC/C=C\CCCCCCCC(=O)NCc1ccc(O)c(OC)c1` [olvanil], the EC50 in test [2] (Ca2+-mobilization (EC50, nM), agonists) is 216 nM; in test [2] (setting [13]) it was 22 nM; in test [3] (setting [16]), 170 nM. This molecule came in with a Ki in test [4] of 300 nM.

For `COc1cc(CNC(=O)CCCC/C=C/C(C)C)ccc1O` [capsaicin], the “sensitivity of VRL-1” value in test [9] is “insensitive”. Also, in [2], the “time to peak value of calcium mobilization response” value is ≤ 1 min. Also, the “Ave Max Response (RFU)” value in test [10] is 843 RFU; in test [11] it was 7257 RFU and 5529 RFU; in test [12], 805 RFU. Also, the EC50 is 340 nM in test [3] (setting [16]) and 270 nM in test [3] (setting [14]).

Regarding `Oc1cc2c(cc1O)CN(C(=S)NCCc1ccc(Cl)cc1)CCC2` [capsazepine], the Ki was 140 nM and 1100 nM in test [2] (Ca2+-mobilization, Ki value); 271 nM in test [3] (read-out: 45Ca2+-uptake, Ki value); 8600 nM in [4]; 5100 nM in test [7] (Binding affinity (nM), competing ligands). In addition, the IC50 in [2] (IC50 for inhibition of capsaicin-evoked calcium mobilization) was 2400 nM and 330 nM.

Consider `N.N.N.N.N.N.N.N.N.N.N.N.N.N.[Cl-].[Cl-].[Cl-].[Cl-].[Cl-].[Cl-].[O-2].[O-2].[Ru+3].[Ru+3].[Ru+4]` [ruthenium red], for which the IC50 in [2] (read-out: IC50 for prevention of calcium mobilization by capsaicin, n=7) was found to be 210 nM. Besides, the “Binding affinity (nM), competing ligands” value in test [4] and in test [7] was “no effect” throughout.

On to `CC1(C)C[C@H]2C=C(C=O)[C@]3(C=O)C[C@]3(C)[C@H]2C1` [isovelleral], for which the Ki in test [1] (Ki for inhibition of [3H]RTX binding) is 18000 nM and 20000 nM; in test [4], 24000 nM.

With `CC(C)=CCC/C(C)=C/CC/C(C)=C/Cc1c(C)c(C=O)c(O)c(O)c1O` [scutigeral], the Ki in [1] (setting [17]) is 20000 nM and 18000 nM; in test [4] (setting [17]), 21000 nM.
